Measurements as given in ChEMBL document CHEMBL1201862, “PubChem BioAssay data set” (2004).
Activity calls are given as the source filed them.

How the values were obtained:
cells = format: functional
[1] = system: Streptococcus sp. 'group A'; experiment: growth inhibition of control SK(-) GAS strain, dose response, counter-screen for streptokinase expression inhibitor project, luminescence, kanamycin, BacTiterGlo, confirmation (AID 1900); format: functional, organism-based
[2] = THP-1 cell cytotoxicity, dose response, cytotoxicity control for non-replicating M. tuberculosis project (AID 489025); format: functional
Streptokinase A = biological target: T1, Streptokinase A (Streptococcus pyogenes serotype M1, UniProt P10520); experiment: S. pyogenes streptokinase expression inhibitors, potency, dose response, plasminogen activation absorbance, OD405 (AID 1914); format: functional, Streptococcus pyogenes M1 GAS;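 further: secreted streptokinase activity via plasminogen activation per viability signal from cell pellet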
T1 sequence (P10520 whole entry): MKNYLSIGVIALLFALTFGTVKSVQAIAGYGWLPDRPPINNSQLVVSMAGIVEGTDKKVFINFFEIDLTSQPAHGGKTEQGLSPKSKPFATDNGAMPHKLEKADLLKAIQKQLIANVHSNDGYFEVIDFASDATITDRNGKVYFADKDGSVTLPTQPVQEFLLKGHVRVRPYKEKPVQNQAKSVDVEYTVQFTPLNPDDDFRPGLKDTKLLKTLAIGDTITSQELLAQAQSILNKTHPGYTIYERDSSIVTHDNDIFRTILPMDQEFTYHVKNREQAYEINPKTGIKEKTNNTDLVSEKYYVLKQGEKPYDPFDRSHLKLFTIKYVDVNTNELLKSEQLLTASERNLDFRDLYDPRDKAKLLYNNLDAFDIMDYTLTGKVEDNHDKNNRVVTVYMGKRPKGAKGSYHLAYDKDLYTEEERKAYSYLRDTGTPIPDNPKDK

[3] = biological target: T2, Short transient receptor potential channel 4 (Mus musculus, UniProt Q9QUQ5); experiment: mouse TRPC4 channel inhibitors, dose response, cell-based, HEK293 TRPC4/mu-opioid, Fluo-4 calcium (AID 434942); format: functional;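 further: potency of inhibitors blocking the TRPC4 calcium response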
T2 sequence (Q9QUQ5 whole entry): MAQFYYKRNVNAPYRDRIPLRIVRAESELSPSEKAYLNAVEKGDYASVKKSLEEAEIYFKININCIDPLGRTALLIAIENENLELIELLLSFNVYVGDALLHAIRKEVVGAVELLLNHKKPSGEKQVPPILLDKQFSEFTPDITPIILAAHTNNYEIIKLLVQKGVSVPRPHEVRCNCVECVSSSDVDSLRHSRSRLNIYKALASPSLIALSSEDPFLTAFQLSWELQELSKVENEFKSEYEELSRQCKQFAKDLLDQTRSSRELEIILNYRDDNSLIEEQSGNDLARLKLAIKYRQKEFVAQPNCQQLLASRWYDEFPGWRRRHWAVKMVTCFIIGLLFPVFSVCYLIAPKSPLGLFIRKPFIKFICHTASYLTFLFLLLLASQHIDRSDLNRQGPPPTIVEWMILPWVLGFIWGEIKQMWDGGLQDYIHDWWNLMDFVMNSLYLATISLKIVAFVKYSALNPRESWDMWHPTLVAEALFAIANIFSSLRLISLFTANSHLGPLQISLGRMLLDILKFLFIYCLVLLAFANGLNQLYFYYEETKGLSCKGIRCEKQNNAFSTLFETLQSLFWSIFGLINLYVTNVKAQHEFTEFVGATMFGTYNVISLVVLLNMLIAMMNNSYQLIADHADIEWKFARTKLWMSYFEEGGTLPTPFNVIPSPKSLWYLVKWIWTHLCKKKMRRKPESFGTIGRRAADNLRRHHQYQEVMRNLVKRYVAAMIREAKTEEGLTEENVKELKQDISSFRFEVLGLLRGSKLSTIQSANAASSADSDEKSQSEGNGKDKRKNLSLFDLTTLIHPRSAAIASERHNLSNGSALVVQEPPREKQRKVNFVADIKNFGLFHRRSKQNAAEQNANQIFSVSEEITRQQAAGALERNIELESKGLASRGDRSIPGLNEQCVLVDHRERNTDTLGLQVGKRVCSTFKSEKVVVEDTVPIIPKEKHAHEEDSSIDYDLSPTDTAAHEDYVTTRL

Streptococcus = experiment: Group A Streptococcus viability loss, dose response, counter-screen for streptokinase expression inhibitor project, luminescence, BacTiterGlo (AID 1915); format: functional, organism-based;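 further: potency for reduction of bacterial viability or growth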
[4] = Vero E6 cell cytotoxicity, dose response, cytotoxicity control for non-replicating M. tuberculosis project, secondary assay (AID 492998); format: functional, VeroE6; conditions: Vero C1008
[5] = inhibitors of intracellular T. cruzi replication, confirmation, NIH3T3 host cells, beta-gal luminescence (AID 2044); format: functional, cell-based;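 further: intracellular parasites grown in NIH/3T3 mouse fibroblasts as host cells; luminescent beta-galactosidase reporter signal from transgenic T. cruzi replicating inside host cells; inhibitors lower the luminescence signal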
[6] = biological target: DNA dC->dU-editing enzyme APOBEC-3G (Homo sapiens, UniProt Q9HC16); experiment: Dose Response confirmation of small molecule APOBEC3G DNA Deaminase Inhibitors via a fluorescence-based single-stranded DNA deaminase assay. [Related pubchem assays (depositor defined):AID493012, AID493028]; format: functional
Chain of DNA dC->dU-editing enzyme APOBEC-3G (Q9HC16 whole entry): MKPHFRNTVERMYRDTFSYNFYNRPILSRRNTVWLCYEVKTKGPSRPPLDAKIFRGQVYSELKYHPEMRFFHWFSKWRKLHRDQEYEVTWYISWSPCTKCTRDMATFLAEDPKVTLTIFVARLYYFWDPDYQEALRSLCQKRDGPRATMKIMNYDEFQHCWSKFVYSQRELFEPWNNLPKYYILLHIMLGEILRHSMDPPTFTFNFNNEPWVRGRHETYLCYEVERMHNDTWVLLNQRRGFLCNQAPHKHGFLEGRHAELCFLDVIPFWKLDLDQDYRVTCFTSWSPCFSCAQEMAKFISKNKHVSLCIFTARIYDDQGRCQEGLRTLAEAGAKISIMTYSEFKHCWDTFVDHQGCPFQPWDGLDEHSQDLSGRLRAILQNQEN

[7] = cytotoxicity toward NIH3T3 fibroblasts, dose response, counter-screen, cell-based, ATP luminescence, mouse fibroblasts (AID 2010); format: functional;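 further: cells exposed to compound for about 90 hours before reading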
[8] = biological target: T3, Type-1 angiotensin II receptor (Homo sapiens, UniProt P30556); experiment: AT1 receptor antagonists, dose response, selectivity assay for APJ receptor antagonist project, cell-based, uHTS hits (AID 463214); format: functional;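 further: antagonist potency against angiotensin II stimulated AT1 response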
T3 sequence (P30556 whole entry): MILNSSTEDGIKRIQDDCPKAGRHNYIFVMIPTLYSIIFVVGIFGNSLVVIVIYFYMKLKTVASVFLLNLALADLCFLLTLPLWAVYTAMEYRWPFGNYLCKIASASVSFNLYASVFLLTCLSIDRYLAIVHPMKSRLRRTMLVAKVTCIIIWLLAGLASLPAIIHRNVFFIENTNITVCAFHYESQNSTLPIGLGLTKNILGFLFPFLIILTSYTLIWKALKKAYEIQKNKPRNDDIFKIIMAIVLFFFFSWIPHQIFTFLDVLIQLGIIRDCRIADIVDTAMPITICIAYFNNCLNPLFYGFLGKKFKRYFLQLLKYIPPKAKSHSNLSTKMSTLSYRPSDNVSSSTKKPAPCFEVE

INS1 = experiment: beta cell apoptosis inhibitors, cytokine rescue, dose response, luminescence, retest (AID 449756); format: functional, cell-based; conditions: Rattus norvegicus;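 further: cell death triggered by IL-1 beta plus TNF-alpha plus IFN-gamma mixture; protective hits raise ATP signal compared with cytokine alone wells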
Beta-galactosidase = Beta-galactosidase (Escherichia coli, UniProt Q8VNN2); experiment: PubChem AID 485352; format: functional
Chain of Beta-galactosidase (Q8VNN2 whole entry): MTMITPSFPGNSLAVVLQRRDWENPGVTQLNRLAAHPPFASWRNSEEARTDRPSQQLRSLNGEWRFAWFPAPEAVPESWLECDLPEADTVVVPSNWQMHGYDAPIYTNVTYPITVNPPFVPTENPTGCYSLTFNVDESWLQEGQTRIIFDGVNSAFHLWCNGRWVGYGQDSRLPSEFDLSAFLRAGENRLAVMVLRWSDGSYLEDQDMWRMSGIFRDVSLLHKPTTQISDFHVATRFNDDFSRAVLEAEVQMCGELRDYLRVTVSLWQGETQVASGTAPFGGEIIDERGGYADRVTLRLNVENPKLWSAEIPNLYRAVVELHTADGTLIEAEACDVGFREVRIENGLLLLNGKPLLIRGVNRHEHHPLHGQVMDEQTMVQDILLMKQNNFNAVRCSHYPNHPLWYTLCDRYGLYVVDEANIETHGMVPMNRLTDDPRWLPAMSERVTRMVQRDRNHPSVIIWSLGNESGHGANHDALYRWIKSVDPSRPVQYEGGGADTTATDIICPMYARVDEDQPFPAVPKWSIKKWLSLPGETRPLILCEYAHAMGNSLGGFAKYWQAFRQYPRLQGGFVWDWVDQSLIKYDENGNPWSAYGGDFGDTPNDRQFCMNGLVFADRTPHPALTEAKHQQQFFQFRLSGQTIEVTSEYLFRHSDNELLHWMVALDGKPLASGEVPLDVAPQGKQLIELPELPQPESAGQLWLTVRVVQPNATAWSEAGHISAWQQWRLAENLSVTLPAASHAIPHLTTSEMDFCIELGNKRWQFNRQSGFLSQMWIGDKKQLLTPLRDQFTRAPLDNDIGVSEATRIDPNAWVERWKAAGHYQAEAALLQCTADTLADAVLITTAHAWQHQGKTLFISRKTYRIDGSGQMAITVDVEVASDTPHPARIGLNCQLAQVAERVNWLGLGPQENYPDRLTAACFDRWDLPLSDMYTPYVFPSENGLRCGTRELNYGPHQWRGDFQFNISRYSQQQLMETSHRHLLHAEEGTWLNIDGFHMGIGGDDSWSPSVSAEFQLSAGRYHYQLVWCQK

[9] = biological target: T2, Short transient receptor potential channel 4; experiment: mouse TRPC4 channel activators, dose response, cell-based, HEK293 TRPC4/mu-opioid, Fluo-4 calcium (AID 434937); format: functional
[10] = Vero cell cytotoxicity, dose response, cytotoxicity control for Vif-APOBEC3G degradation inhibitor project, Vero cells (AID 1117358); format: functional; conditions: Human immunodeficiency virus 1, Vero
[11] = biological target: T4, High affinity choline transporter 1 (Homo sapiens, UniProt Q9GZV3); experiment: CHT inhibitors, dose response, cell-based, 5-point CRC, membrane potential dye (AID 504840); format: functional
T4 sequence (Q9GZV3 whole entry): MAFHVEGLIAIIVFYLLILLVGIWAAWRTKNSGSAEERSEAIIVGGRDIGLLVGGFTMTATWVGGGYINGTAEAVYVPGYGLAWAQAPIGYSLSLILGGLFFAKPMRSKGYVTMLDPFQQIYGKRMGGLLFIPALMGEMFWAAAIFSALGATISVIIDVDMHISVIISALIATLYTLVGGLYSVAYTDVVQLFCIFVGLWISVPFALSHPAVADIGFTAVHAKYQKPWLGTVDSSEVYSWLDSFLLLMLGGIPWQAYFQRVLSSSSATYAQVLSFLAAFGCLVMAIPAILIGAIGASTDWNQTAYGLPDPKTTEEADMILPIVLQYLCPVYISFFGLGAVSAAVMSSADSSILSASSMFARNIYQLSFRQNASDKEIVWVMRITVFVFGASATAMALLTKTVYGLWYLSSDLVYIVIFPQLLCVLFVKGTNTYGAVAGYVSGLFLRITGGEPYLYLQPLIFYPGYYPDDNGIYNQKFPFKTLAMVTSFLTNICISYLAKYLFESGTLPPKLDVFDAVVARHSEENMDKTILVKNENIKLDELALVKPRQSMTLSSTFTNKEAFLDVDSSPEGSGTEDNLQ

[12] = biological target: G-protein coupled receptor 55 (Homo sapiens, UniProt Q9Y2T6); experiment: GPR55 agonists via beta-arrestin recruitment, primary screen, imaging, U2OS cells, beta-arrestin-GFP redistribution (AID 1961); format: functional
Chain of G-protein coupled receptor 55 (Q9Y2T6 whole entry): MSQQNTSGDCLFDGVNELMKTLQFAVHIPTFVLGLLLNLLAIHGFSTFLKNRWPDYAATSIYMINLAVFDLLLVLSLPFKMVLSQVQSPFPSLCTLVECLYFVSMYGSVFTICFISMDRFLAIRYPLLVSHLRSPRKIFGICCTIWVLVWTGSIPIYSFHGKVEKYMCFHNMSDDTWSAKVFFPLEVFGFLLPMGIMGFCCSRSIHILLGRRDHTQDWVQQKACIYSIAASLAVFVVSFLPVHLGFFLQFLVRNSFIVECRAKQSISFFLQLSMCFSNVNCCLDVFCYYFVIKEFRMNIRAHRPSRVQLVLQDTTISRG

CAAX prenyl protease 2 [13] = biological target: T5, CAAX prenyl protease 2 (Homo sapiens, UniProt Q9Y256); experiment: human Rce1 protease inhibitors, dose response, biochemical, yeast membranes, quenched-peptide fluorescence, cherry-pick (AID 588849)
T5 sequence (Q9Y256 whole entry): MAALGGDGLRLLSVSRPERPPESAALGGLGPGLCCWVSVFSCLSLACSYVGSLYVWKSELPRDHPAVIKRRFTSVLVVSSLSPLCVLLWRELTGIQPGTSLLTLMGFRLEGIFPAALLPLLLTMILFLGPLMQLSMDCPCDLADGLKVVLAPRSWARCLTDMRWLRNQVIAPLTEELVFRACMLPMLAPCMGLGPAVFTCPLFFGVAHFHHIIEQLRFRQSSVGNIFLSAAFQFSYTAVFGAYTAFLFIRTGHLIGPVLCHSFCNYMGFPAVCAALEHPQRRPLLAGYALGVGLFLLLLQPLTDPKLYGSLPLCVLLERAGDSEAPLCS

CAAX prenyl protease 2 [14] = biological target: T6, CAAX prenyl protease 2 (Saccharomyces cerevisiae S288c, UniProt Q03530); format: biochemical
T6 sequence (Q03530 whole entry): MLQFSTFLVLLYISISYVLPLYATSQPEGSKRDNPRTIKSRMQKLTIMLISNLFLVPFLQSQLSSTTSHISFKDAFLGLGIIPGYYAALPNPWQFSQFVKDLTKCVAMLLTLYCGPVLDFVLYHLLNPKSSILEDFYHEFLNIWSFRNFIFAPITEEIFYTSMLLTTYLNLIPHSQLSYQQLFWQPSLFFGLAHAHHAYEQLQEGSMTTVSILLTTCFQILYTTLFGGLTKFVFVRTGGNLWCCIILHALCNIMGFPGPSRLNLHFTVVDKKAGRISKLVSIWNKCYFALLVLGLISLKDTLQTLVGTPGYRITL

[15] = biological target: Eukaryotic translation initiation factor 4E (Mus musculus, UniProt P63073); experiment: eIF4E–eIF4G protein interaction inhibitors, dose response, biochemical, TR-FRET (AID 855); format: functional;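 further: potency for disrupting eIF4E binding to eIF4GI seen as loss of FRET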
Chain of Eukaryotic translation initiation factor 4E (P63073 whole entry): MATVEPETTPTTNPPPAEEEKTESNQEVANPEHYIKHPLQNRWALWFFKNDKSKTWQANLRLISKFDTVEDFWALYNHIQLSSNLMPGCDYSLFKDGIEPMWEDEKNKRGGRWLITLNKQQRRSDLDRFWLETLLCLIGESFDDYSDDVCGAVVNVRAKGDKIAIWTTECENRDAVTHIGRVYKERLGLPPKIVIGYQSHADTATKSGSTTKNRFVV

[16] = HEp-2 cell cytotoxicity, dose response, cytotoxicity control for RSV inhibitor project, HTS (AID 2410); format: functional; conditions: human respiratory syncytial virus
[17] = biological target: T7, Heat shock factor protein 1 (Mus musculus, UniProt P38532); experiment: HSF1 potentiators in luciferase reporter cells, confirmation, cell-based, NIH3T3, luminescence, dose retest (AID 435004); format: functional;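 further: stress induced by proteasome inhibitor MG132 added 30 min after compound; luciferase reporter driven by HSF1 response element in NIH3T3 cells; actives raise luminescence as potentiators of the MG132 stress response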
T7 sequence (P38532 whole entry): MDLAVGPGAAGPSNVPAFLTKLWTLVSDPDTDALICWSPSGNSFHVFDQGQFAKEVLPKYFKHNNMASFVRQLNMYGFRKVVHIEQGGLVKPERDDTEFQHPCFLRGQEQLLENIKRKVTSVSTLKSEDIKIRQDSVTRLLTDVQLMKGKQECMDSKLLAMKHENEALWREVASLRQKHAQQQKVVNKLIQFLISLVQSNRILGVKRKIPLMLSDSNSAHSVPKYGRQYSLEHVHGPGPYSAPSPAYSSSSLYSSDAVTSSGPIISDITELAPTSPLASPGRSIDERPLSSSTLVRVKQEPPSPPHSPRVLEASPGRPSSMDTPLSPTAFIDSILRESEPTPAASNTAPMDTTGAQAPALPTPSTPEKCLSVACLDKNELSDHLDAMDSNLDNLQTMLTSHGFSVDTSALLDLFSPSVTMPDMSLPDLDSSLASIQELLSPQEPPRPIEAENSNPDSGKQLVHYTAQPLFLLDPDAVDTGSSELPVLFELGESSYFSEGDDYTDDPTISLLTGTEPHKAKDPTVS

Cc1ccc(C(=O)Nc2nnc(C3=COCCO3)o2)cc1C
IC50 (cells): 2.03 µM (active) | EC50 [1]: 5.17 µM (active) | CC50 [2]: > 40 µM (active) | EC50 (Streptokinase A): > 150 µM (not active) | EC50 [3]: 0.421 µM (active) | EC50 (Streptococcus): 15.5 µM (active) | CC50 [4]: > 20 µM (active)

O=C(Nc1nc(-c2ccccn2)cs1)Nc1ccc(F)cc1F
EC50 [1]: 1.16 µM (active) | EC50 [5]: 0.9 µM (active) | IC50 [6]: 65.9 µM (active) | EC50 [7]: 8.78 µM (active) | IC50 [8]: 18.8 µM (active) | AC50 (INS1): 3.4 µM (active) | EC50 (Streptococcus): 2.33 µM (active) | EC50 (Beta-galactosidase): > 40 µM (inactive)

CCN1CCN(c2ccc(S(=O)(=O)N3CCOCC3)cc2NC(=O)c2ccccc2SC)CC1
EC50 [9]: 0.421 µM (active)

COc1cc2ccccc2cc1C(=O)NCC(c1cccs1)N(C)C (stereo not drawn)
EC50 [9]: 0.944 µM (active)

Cc1cccc2c1NC(=O)C2=Nc1ccc(Cl)cc1
IC50 [8]: 27.9 µM (not active) | EC50 (Beta-galactosidase): > 40 µM (inactive)

CN1CCN(S(=O)(=O)c2ccc(NC(=O)Nc3cccc(Cl)c3)cc2)CC1
CC50 [10]: > 40 µM (active) | IC50 [11]: 13.2 µM (active)

CNS(=O)(=O)c1cccc(C(=O)OCC(=O)c2ccc(S(=O)(=O)N3CCCCC3)cc2)c1
IC50 [8]: 18.8 µM (active) | EC50 (Beta-galactosidase): > 40 µM (inactive)

CCc1ccc(Nc2n[n+](-c3ccccc3)c(/C=C/c3ccccc3)s2)cc1
EC50 [12]: 1.59 µM (active) | AC50 (CAAX prenyl protease 2 [13]): 23.8 µM (active) | AC50 (CAAX prenyl protease 2 [14]): 0.634 µM (active)

NC(=O)C1CCCN(CCc2ccccc2)C1 (stereo not drawn)
EC50 [9]: 0.06 µM (active)

CC(/C=N\NC(=O)CN1CCN(S(=O)(=O)c2ccc(C)cc2)CC1)=C\c1ccccc1
IC50 [15]: > 64 µM (inactive) | AC50 (CAAX prenyl protease 2 [13]): 59.3 µM (active) | AC50 (CAAX prenyl protease 2 [14]): 4.3 µM (active)

CCOC(=O)C(=Cc1c[nH]c2ccc(S(=O)(=O)N(C)C)cc12)C(=O)OCC
CC50 [16]: 13.4 µM (active) | IC50 [11]: 15.8 µM (active) | EC50 [17]: 45.3 µM (active)
